Tests used:
[1] = test system: PMN differentiated from HPCs; assay: PMN generated from HPC in the presence of GM-CSF and arachidonic acid; assay type: cell-based, mouse
Experimental: Single cells suspensions from spleen and tumors were prepared as described above. Then cells were stained and sorted on BD FACS Aria BD (Biosciences). PMN-MDSC)(CD45^+ CD11b^+Ly6G^+Ly6C^lo and M-MDSC (CD45^+ CD11b^+Ly6G^−Ly6C^hi) were plated in U-bottom 96-well plates (3 replicates) in RPMI with 10% FBS and co-cultured at different ratios with splenocytes from Pmel or OT-1 transgenic mice in the presence of cognate peptides: OT-1 (SIINFEKL; 0.1 ng/ml), Pmel (EGSRNQDWL; 0.1 μg/ml). After 48 h, cells were incubated with [^3H]-thymidine (PerkinElmer) for 16-18 h. Proliferation was measured by using TopCount NXT instrument (PerkinElmer).
RNA was extracted using Total RNA Kit according to manufacturer's instructions. DNase digestion was performed cDNA was generated with High-Capacity cDNA Reverse Transcription Kit (Applied Biosystems, Foster City, Calif., USA). qRT-PCR was performed using Power SYBR Green PCR Master Mix (Applied Biosystems) in 96- or 384 well plates. Plates were read with ABI 7900 (Applied Biosystems).
Mouse neutrophils were generated from enriched bone marrow hematopoietic progenitor cells (HPCs) with 20 ng/ml of GM-CSF. Briefly, HPCs were isolated from mouse BM by using Lineage depletion kit (Miltenyi), according to manufacturer's instructions. Cells were seeded at 25000 cell/ml in 24 well plates and GM-CSF (20 ng/ml), 20% v/v TES or arachidonic acid (10 μM) were added at day 0 and day 3. At day 5, Ly6G positive neutrophils were isolated by using anti-Ly6G biotin (Miltenyi) and streptavidin beads (Miltenyi), according to manufacturer's instructions.
HPCs were isolated from mouse BM by using Lineage depletion kit (Miltenyi), according to manufacturer's instructions. HPC were resuspended in serum-free medium (SFM) containing lentiviral vectors followed by centrifugation of the plate at 1000 rpm for 20 min at 25° C. Fresh media supplemented with GM-CSF (20 ng/ml) was then added and cells were seeded at 25000 cell/ml in 24 well plates. At day 3, GM-CSF and 20% v/v TES were added to the culture. At day 5, cells were collected, stained with PE conjugated anti mouse Ly6G, APC conjugated anti mouse Ly6C and BV421 conjugated anti-mouse CD11b, and GFP^− and GFP^+Ly6G^+ cells were sorted on BD FACS Melody (BD Biosciences). GFP^− and GFP^+Ly6G^+ cells were seeded at 2.000.000 cells/ml in presence of GM-CSF and TES and incubated for further 24 hours. Pellets and supernatants were collected for further analysis. PGE2 concentration in supernatants was measured by using PGE2 ELISA KIT (Invitrogen), according to manufacturer's instructions.

STAT5 / FATP2 in PMN = assay: Mouse bone marrow PMN treated with GM-CSF (pSTAT5 flow cytometry, FATP2 Western blot); assay type: cell-based
Experimental: Cells were lysed in RIPA buffer (Sigma-Aldrich) in presence of protease inhibitor cocktail (Sigma-Aldrich), sonicated and stored at −80° C. Whole cell lysates were prepared and subjected to 10% SDS-PAGE and transferred to PVDF membrane. The membranes were probed overnight at 4° C. with the antibodies specific for FATP2 (SLC27A2) (ThermoFisher), ACTIN, GAPDH, STAT5 (Cell Signaling Technology). Membranes were washed and incubated for 1 h at room temperature with secondary antibody conjugated with peroxidase.
Slc27a2 promoter has a binding site for the transcription factor STAT5 (http://jaspar.genereg.net). STAT5 can be activated by GM-CSF, which plays a critical role in myelopoiesis and expansion of MDSC^23. To explore whether GM-CSF might control slc27a2 expression through STAT5 activation we treated PMN isolated from BM of tumor free mice with GM-CSF for 2 hrs. […] To confirm the role of STAT5 in controlling the expression of slc27a2 in PMN, we crossed Stat5″ mice with S100A8-cre mice to target the deletion of Stat5 to PMN. In the absence of Stat5 in PMN, the tumor growth was slower than in control mice (FIG. 11I). This was associated with lower expression of slc27a2 in PMN (FIG. 11J).

[2] = test system: pSTAT5 / FATP2 in human PMNs; assay: Human PMN from healthy donors treated with GM-CSF (pSTAT5, FATP2); assay type: cell-based; conditions: human PMNs from blood of healthy donors
Description: FIG. 12A, Lipid accumulation (measured by BODIPY staining) in M-MDSCs isolated from the blood of patients with cancer or healthy individuals. Each circle indicates an individual. FIG. 12B, Amount of lipids (BODIPY staining) in M-MDSCs from blood and tumor tissue of patients with cancer. Each circle indicates an individual (n=5). FIG. 12C, RNA-seq analysis of genes involved in lipid accumulation in human LOX1^+ PMN-MDSCs and LOX1^− PMNs (n=4). FIG. 12D, PTGES expression in LOX1^+ and LOX1^− PMNs from blood of patients with cancer. Fold change compared with LOX1^− PMNs (n=3). FIG. 12E, SLC27A2 expression in M-MDSCs and monocytes isolated from blood of patients with cancer and healthy donors, respectively. Each circle indicates an individual (n=4-6). Data are mean±s.d. FIG. 12F, pSTAT5 by flow cytometry at different time points, in human PMNs isolated from the blood of healthy donors and treated with different amounts of GM-CSF. FIG. 12G, FATP2 in PMNs isolated from blood of healthy donors and treated with GM-CSF. Representative of three independent experiments. FIG. 12H, Content of total phosphatidylethanolamine (PE) and arachidonoyl-containing phosphatidylethanolamine (AA-PE) in PMN-MDSCs isolated from patients with lung cancer (n=5) or healthy donors (n=4). Each circle indicates an individual. Data are mean±s.d. *P<0.05, **P<0.01, ***P<0.001, ****P<0.0001, unpaired two-sided Student's t-test. […]

[3] = PMN differentiated from HPC in the presence of AA

Compound	expansion of PMN-MDSC ([1]; HPC with GM-CSF and AA (10 μM))	suppression of antigen specific T cell responses by the generated PMN ([1]; HPC with GM-CSF and AA (10 μM))	expression of nox2 [1, 3]	production of PGE2 [1, 3]	FATP2 protein (STAT5 / FATP2 in PMN; PMN from BM of tumor free mice, GM-CSF)	activation of STAT5 (pSTAT5) (STAT5 / FATP2 in PMN; PMN from BM of tumor free mice, GM-CSF for 2 hrs)	expression of FATP2 in Stat5 deficient PMN (STAT5 / FATP2 in PMN; Stat5 deficient PMN, GM-CSF)	FATP2 [2]	pSTAT5 [2]
CCCCC/C=C\C/C=C\C/C=C\C/C=C\CCCC(=O)O [AA, arachidonic acid]	favored the expansion of PMN-MDSC	suppressed antigen specific T cell responses	increased expression of nox2	higher production of PGE2	–	–	–	–	–
GM-CSF: cytokine that activates STAT5; plays a critical role in myelopoiesis and expansion of MDSC	–	–	–	–	up-regulation of FATP2	dose-dependent activation of STAT5	failed to increase the expression of FATP2	up-regulated	up-regulated
